Measured values taken from patent US9187448B2, “Flavonoid compounds” (CARDERO THERAPEUTICS, INC., priority 2011, dated 2015).

Columns and labels:
[1] = tested on: mitochondrial complex proteins (MCP) I and V; assay: Western blot of mitochondrial complex proteins (MCP) in coronary artery endothelial cells; format: cell-based, human (HCAEC) or bovine (BCAEC); conditions: HCAEC or BCAEC, Western blot band intensity; results shown in FIG. 2
Description: The effect of (−)-epicatechin analogs on mitochondrial complex proteins (MCP) I and V was studied human (HCAEC) or bovine (BCAEC) Coronary Artery Endothelial cells. Western blots were performed as follows: Approximately 50 mg of cells were homogenized with a polytron in 500 μl lysis buffer (1% triton X-100, 20 mM Tris, 140 mM NaCl, 2 mM EDTA, and 0.1% SDS) with protease and phosphatase inhibitor cocktails (P2714 and P2850, Sigma-Aldrich, St. Louis, Mo.) supplemented with 0.15 mM PMSF, 5 mM Na3VO4 and 3 mM NaF. Homogenates were passed through an insulin syringe five times, sonicated for 30 min at 4° C. and centrifuged (12,000 g) for 10 min. The total protein content was measured in the supernatant using the Bradford method. A total of 40 μg of protein was loaded onto a 4%-15% precast TGX polyacrylamide gel (Bio-rad), electrotransferred (12 V, 50 minutes), incubated for 1 h in blocking solution (5% nonfat dry milk in TBS plus 0.1% Tween 20 [TBS-T]). Blots were probed with a cocktail of monoclonal antibodies to electron transport chain proteins (OXPHOS) (20 KDa subunit of complex I, 26 KDa subunit of complex IV, subunit core 2 of complex III, 30 Kda complex II and ATP synthase 54 Kda complex V). […] The band intensities were digitally quantified using ImageJ software (http://www.nih.gov).

[2] = rat; cited from earlier work
[3] = target: T1, MRP2 efflux transporter (Homo sapiens, UniProt Q92887); conditions: human intestinal Caco-2 cells; cited from earlier work
T1 construct: In a study of enterocyte absorption using human intestinal Caco-2 cells; endogenous in cells; host or cells: Caco-2
T1 sequence (Q92887 whole entry): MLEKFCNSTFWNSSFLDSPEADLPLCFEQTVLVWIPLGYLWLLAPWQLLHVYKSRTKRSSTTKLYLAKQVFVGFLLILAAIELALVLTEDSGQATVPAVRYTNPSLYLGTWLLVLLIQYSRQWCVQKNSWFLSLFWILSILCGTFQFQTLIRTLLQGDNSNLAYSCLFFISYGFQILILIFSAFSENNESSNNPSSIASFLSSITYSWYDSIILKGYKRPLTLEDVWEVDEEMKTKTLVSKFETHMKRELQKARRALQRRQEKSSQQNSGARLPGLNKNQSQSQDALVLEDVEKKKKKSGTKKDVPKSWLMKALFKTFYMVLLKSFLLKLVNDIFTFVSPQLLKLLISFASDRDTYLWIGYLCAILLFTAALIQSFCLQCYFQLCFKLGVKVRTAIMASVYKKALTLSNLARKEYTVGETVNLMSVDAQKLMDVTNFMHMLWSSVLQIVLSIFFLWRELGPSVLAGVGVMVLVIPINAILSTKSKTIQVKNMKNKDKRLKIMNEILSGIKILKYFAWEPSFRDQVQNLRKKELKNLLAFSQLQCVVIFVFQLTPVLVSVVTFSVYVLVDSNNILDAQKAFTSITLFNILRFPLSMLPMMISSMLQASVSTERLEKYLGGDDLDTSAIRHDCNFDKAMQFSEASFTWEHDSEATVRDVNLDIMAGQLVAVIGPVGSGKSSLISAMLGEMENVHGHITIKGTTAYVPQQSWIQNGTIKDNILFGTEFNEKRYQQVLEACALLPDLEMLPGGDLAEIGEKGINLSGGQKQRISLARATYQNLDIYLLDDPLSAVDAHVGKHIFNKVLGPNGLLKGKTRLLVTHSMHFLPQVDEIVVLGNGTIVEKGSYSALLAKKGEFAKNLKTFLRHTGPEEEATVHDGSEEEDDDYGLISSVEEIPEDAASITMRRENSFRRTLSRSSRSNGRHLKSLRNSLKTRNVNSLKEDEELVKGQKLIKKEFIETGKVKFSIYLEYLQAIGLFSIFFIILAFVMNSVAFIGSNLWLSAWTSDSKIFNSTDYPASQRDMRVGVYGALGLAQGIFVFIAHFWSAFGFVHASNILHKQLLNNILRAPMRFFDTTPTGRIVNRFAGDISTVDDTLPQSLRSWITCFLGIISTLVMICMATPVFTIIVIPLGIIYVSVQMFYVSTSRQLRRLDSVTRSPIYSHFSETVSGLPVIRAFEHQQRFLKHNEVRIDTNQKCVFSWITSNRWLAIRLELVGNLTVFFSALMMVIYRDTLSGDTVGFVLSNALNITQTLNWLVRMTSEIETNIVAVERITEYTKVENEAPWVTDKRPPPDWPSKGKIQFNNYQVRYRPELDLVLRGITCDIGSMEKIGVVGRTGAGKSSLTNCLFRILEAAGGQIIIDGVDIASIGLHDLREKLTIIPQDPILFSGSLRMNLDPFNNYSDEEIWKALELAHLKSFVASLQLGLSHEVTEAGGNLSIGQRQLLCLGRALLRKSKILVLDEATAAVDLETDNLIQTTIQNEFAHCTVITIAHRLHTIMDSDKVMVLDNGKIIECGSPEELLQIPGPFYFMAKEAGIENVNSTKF

[4] = humans, ingested in chocolate; cited from earlier work

COc1cc(OC)c2c(c1)O[C@H](c1ccc(O)c(O)c1)[C@H](O)C2 [5,7-dimethyl substituted (−)-epicatechin]
effect on MCP (activity/potency) relative to (−)-epicatechin [1]: less potent than the unsubstituted parent

Oc1cc(O)c2c(c1)O[C@H](c1ccc(O)c(O)c1)[C@@H](O)C2 [(+)-catechin]
effect on absorption of (−)-epicatechin [2]: inhibited

Oc1cc(O)c2c(c1)O[C@H](c1ccc(O)c(O)c1)[C@H](O)C2 [(−)-epicatechin, (2R,3R)-2-(3,4-dihydroxyphenyl)chroman-3,5,7-triol]
efflux transporter substrate status [3]: substrate of the MRP2 efflux transporter | fraction absorbed [4]: approximately 30%

CN(C)C(=O)CCSC(SCCC(=O)O)c1cccc(/C=C/c2ccc3ccc(Cl)cc3n2)c1 (centres unmarked) [MK-571]
effect of MRP2 inhibition on absorption of (−)-epicatechin [3]: increased absorption of (−)-epicatechin somewhat
